Source: ChEMBL document CHEMBL4321854, “Discovery of a First-in-Class Mitogen-Activated Protein Kinase Kinase 1/2 Degrader” (J Med Chem, 2019)
Active and inactive are the calls of the source. The rule behind the calls is not given here.

Experiments:
[1] = molecular target: T1, von Hippel-Lindau disease tumor suppressor/Dual specificity mitogen-activated protein kinase kinase 2 (Homo sapiens) (UniProt P36507+P40337); experiment: Protac activity against VHL/MEK2 in human HT-29 cells harboring with BRAF V600E variant assessed as degradation of MEK2 by measuring reduction in MEK2 protein level at 0.1 to 0.3 uM after 2 hrs by Western blot analysis; format: cell-based
T1 sequence (P36507 whole entry, looked up): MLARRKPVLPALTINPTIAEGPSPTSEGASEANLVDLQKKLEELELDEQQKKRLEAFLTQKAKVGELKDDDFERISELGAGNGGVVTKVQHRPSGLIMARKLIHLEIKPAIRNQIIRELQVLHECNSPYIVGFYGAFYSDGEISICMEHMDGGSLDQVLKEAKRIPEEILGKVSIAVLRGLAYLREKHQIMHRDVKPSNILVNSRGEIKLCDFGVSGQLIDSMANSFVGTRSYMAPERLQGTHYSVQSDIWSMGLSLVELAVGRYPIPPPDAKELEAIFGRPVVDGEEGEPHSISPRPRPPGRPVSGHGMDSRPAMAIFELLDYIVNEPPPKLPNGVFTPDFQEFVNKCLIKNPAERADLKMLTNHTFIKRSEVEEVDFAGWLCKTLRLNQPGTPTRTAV
T1 sequence (P40337 whole entry, looked up): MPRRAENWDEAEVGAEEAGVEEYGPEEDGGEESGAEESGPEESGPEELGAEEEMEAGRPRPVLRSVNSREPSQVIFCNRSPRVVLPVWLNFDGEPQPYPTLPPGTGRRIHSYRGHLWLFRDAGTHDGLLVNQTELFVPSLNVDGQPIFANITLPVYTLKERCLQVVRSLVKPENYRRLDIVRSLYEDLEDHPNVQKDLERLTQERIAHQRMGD

[2] = molecular target: T2, von Hippel-Lindau disease tumor suppressor/Dual specificity mitogen-activated protein kinase kinase 2/Dual specificity mitogen-activated protein kinase kinase 1 (Homo sapiens) (UniProt P36507+Q02750+P40337); experiment: Protac activity against VHL/MEK1/2 in human SK-MEL-28 cells harboring with BRAF V600E variant assessed as phosphorylation of MEK at S218/222 residues at 0.3 uM pretreated with NEDD8-activating enzyme inhibitor, MLN4924 for 2 hrs followed by incubation with compound for 10 hrs by Western blot analysis; format: cell-based
T2 sequence (P36507 whole entry, looked up): as the sequence (P36507 whole entry, looked up) above
T2 sequence (P40337 whole entry, looked up): as the sequence (P40337 whole entry, looked up) above
T2 sequence (Q02750 whole entry, looked up): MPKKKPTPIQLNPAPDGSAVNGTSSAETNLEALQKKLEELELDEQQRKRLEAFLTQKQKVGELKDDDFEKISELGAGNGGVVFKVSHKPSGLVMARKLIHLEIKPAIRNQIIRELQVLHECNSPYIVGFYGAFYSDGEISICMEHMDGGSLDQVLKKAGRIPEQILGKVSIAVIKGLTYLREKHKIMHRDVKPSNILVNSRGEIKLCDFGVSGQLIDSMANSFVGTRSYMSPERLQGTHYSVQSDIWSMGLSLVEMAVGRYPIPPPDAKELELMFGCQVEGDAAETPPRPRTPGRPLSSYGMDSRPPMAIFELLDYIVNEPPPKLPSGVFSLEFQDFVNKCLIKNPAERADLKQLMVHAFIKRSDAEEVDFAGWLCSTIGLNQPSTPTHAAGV

[3] = molecular target: T3, von Hippel-Lindau disease tumor suppressor/Dual specificity mitogen-activated protein kinase kinase 1 (Homo sapiens) (UniProt Q02750+P40337); experiment: Protac activity against VHL/MEK1 in human UACC257 cells harboring with BRAF V600E variant assessed as degradation of MEK1 at 3 to 5 uM uM after 24 hrs by Western blot analysis; format: cell-based
T3 sequence (P40337 whole entry, looked up): as the sequence (P40337 whole entry, looked up) above
T3 sequence (Q02750 whole entry, looked up): as the sequence (Q02750 whole entry, looked up) above

[4] = Toxicity in Swiss albino mouse assessed as effect on adverse events at 50 mg/kg, ip; format: organism-based; conditions: in vivo
[5] = molecular target: T3, von Hippel-Lindau disease tumor suppressor/Dual specificity mitogen-activated protein kinase kinase 1 (Homo sapiens); experiment: Protac activity against VHL/MEK1 in human SK-MEL-28 cells harboring with BRAF V600E variant assessed as degradation of MEK1 by measuring reduction in MEK1 protein level at 0.1 to 0.3 uM after 2 hrs by Western blot analysis; format: cell-based
[6] = molecular target: T1, von Hippel-Lindau disease tumor suppressor/Dual specificity mitogen-activated protein kinase kinase 2 (Homo sapiens); experiment: Protac activity against VHL/MEK2 in human SK-MEL-28 cells harboring with BRAF V600E variant assessed as degradation of MEK2 by measuring MEK2 protein level at 0.3 uM pretreated with MEK1/2 inhibitor, PD0325901 for 2 hrs followed by incubation with compound for 10 hrs by Western blot analysis; format: cell-based
[7] = molecular target: T1, von Hippel-Lindau disease tumor suppressor/Dual specificity mitogen-activated protein kinase kinase 2 (Homo sapiens); experiment: Protac activity against VHL/MEK2 in human SK-MEL-28 cells harboring with BRAF V600E variant assessed as degradation of MEK2 at 3 to 5 uM after 24 hrs by Western blot analysis; format: cell-based
[8] = molecular target: T3, von Hippel-Lindau disease tumor suppressor/Dual specificity mitogen-activated protein kinase kinase 1 (Homo sapiens); experiment: Protac activity against VHL/MEK1 in human SK-MEL-28 cells harboring with BRAF V600E variant assessed as degradation of MEK1 by measuring reduction in MEK1 protein level at 0.3 uM after 8 hrs by Western blot analysis relative to control; format: cell-based; parameters: scale not given: the % may be the effect or the level left
[9] = molecular target: T2, von Hippel-Lindau disease tumor suppressor/Dual specificity mitogen-activated protein kinase kinase 2/Dual specificity mitogen-activated protein kinase kinase 1 (Homo sapiens); experiment: Protac activity against VHL/MEK1/2 in human HT-29 cells harboring with BRAF V600E variant assessed as reduction in phosphorylation of ERK at T202/Y204 residues after 24 hrs by Western blot analysis; format: cell-based
[10] = molecular target: T3, von Hippel-Lindau disease tumor suppressor/Dual specificity mitogen-activated protein kinase kinase 1 (Homo sapiens); experiment: Protac activity against VHL/MEK1 in human HT-29 cells harboring with BRAF V600E variant assessed as degradation of MEK1 at 0.1 to 0.3 uM after 4 hrs by Western blot analysis; format: cell-based
[11] = molecular target: T1, von Hippel-Lindau disease tumor suppressor/Dual specificity mitogen-activated protein kinase kinase 2 (Homo sapiens); experiment: Protac activity against VHL/MEK2 in human COLO205 cells harboring with BRAF V600E variant assessed as degradation of MEK2 at 3 to 5 uM after 24 hrs by Western blot analysis; format: cell-based
[12] = molecular target: T2, von Hippel-Lindau disease tumor suppressor/Dual specificity mitogen-activated protein kinase kinase 2/Dual specificity mitogen-activated protein kinase kinase 1 (Homo sapiens); experiment: Protac activity against VHL/MEK1/2 in human UACC257 cells harboring with BRAF V600E variant assessed as reduction in phosphorylation of ERK at T202/Y204 residues after 24 hrs by Western blot analysis; format: cell-based
[13] = molecular target: von Hippel-Lindau disease tumor suppressor/Leukocyte receptor cluster member 8 (Homo sapiens) (UniProt P40337+Q96PV6); experiment: Protac activity against VHL/LENG8 in human HT-29 cells harboring with BRAF V600E variant assessed as reduction in LENG8 protein level at 0.1 uM after 10 hrs by LC-MS based Volcano plot analysis; format: cell-based
[14] = molecular target: T2, von Hippel-Lindau disease tumor suppressor/Dual specificity mitogen-activated protein kinase kinase 2/Dual specificity mitogen-activated protein kinase kinase 1 (Homo sapiens); experiment: Protac activity against VHL/MEK1/2 in human HT-29 cells harboring with BRAF V600E variant assessed as phosphorylation of ERK at T202/Y204 residues at 0.3 uM pretreated with VHL ligand, VH 032 for 2 hrs followed by incubation with compound for 10 hrs by Western blot analysis; format: cell-based
[15] = test system: SK-MEL-28; experiment: Antiproliferative activity against human SK-MEL-28 cells assessed as reduction in cell growth after 3 days by MTT assay; format: functional
[16] = molecular target: von Hippel-Lindau disease tumor suppressor/Cullin-9 (Homo sapiens) (UniProt P40337+Q8IWT3); experiment: Protac activity against VHL/cullin9 in human HT-29 cells harboring with BRAF V600E variant assessed as reduction in Cullin9 protein level at 0.1 uM after 10 hrs by LC-MS based Volcano plot analysis; format: cell-based
Chain of von Hippel-Lindau disease tumor suppressor/Cullin-9 (Homo sapiens) (P40337 whole entry, looked up): as the sequence (P40337 whole entry, looked up) above
Chain of von Hippel-Lindau disease tumor suppressor/Cullin-9 (Homo sapiens) (Q8IWT3 whole entry, looked up): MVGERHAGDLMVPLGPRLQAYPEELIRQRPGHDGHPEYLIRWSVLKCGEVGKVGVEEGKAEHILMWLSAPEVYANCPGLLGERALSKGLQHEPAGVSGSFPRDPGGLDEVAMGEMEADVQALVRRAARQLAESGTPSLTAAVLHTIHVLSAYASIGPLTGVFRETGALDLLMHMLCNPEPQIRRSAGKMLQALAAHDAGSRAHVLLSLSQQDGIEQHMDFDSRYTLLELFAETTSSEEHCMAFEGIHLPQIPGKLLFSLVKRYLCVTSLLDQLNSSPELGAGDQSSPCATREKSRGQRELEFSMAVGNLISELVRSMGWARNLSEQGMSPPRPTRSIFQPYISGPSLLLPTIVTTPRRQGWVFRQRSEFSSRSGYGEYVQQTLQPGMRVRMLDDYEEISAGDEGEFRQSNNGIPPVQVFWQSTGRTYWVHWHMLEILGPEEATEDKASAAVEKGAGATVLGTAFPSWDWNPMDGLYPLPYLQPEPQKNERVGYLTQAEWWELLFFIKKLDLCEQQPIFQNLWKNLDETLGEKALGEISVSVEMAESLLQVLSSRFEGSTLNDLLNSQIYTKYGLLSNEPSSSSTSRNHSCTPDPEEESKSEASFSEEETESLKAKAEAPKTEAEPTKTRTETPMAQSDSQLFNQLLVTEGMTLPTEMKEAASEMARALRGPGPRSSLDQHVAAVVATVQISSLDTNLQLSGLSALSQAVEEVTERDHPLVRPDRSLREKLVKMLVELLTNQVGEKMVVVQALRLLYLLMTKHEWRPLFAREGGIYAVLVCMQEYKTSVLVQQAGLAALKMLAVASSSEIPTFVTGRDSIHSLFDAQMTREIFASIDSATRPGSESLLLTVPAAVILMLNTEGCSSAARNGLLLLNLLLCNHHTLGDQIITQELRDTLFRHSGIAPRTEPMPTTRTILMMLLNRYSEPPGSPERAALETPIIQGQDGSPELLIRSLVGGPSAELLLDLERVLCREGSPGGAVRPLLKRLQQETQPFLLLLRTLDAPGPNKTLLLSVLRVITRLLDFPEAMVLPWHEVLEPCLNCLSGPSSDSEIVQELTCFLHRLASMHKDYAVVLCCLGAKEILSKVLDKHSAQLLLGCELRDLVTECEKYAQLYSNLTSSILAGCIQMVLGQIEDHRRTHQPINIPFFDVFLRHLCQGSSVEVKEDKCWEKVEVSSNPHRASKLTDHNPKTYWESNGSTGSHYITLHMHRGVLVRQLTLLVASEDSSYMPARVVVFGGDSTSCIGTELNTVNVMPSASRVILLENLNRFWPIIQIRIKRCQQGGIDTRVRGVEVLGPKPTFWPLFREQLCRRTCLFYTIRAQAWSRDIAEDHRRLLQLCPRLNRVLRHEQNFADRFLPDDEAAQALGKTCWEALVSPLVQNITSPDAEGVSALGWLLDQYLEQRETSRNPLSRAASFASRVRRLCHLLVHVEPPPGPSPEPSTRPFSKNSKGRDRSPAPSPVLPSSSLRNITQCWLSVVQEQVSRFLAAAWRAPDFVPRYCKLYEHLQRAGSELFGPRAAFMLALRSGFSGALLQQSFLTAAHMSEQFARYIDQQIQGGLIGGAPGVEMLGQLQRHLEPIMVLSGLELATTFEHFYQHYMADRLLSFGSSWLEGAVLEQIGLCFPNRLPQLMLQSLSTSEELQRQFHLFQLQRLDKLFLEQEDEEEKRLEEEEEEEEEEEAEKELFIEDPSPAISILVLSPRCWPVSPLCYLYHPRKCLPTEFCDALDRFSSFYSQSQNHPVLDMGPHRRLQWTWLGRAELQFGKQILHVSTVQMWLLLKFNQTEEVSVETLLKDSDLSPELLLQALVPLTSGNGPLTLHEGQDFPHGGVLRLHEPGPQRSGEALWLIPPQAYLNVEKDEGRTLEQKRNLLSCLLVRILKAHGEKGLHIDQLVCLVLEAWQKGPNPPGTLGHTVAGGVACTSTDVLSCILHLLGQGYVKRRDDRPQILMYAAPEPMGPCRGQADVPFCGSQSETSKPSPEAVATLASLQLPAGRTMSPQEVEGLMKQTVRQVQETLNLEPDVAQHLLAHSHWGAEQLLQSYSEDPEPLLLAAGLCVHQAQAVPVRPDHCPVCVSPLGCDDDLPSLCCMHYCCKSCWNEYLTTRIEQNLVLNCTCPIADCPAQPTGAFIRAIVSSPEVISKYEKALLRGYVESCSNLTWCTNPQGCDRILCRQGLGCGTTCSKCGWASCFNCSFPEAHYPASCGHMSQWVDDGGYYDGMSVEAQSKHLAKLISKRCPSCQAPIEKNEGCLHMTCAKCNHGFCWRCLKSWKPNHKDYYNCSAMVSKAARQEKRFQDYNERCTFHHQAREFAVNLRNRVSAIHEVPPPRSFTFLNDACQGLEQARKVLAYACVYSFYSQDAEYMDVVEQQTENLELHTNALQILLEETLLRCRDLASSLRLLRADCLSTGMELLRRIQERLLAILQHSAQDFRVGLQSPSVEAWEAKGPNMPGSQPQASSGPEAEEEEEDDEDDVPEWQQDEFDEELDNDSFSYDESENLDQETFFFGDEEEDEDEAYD

[17] = molecular target: T2, von Hippel-Lindau disease tumor suppressor/Dual specificity mitogen-activated protein kinase kinase 2/Dual specificity mitogen-activated protein kinase kinase 1 (Homo sapiens); experiment: Protac activity against VHL/MEK1/2 in human UACC257 cells harboring with BRAF V600E variant assessed as reduction in phosphorylation of MEK at S218/222 residues after 24 hrs by Western blot analysis; format: cell-based
[18] = molecular target: T1, von Hippel-Lindau disease tumor suppressor/Dual specificity mitogen-activated protein kinase kinase 2 (Homo sapiens); experiment: Protac activity against VHL/MEK2 in human UACC257 cells harboring with BRAF V600E variant assessed as degradation of MEK2 at 3 to 5 uM after 24 hrs by Western blot analysis; format: cell-based
[19] = molecular target: T2, von Hippel-Lindau disease tumor suppressor/Dual specificity mitogen-activated protein kinase kinase 2/Dual specificity mitogen-activated protein kinase kinase 1 (Homo sapiens); experiment: Protac activity against VHL/MEK1/2 in human HT-29 cells harboring with BRAF V600E variant assessed as reduction in phosphorylation of MEK at S218/222 residues after 24 hrs by Western blot analysis; format: cell-based
[20] = test system: HT-29; experiment: Inhibition of colony formation in human HT-29 cells at 10 to 100 nM supplemented with fresh medium containing compound every 3 days for 14 days by crystal violet staining based assay; format: functional, cell-based
[21] = molecular target: T1, von Hippel-Lindau disease tumor suppressor/Dual specificity mitogen-activated protein kinase kinase 2 (Homo sapiens); experiment: Protac activity against VHL/MEK2 in human HT-29 cells harboring with BRAF V600E variant assessed as degradation of MEK2 at 0.1 to 0.3 uM after 4 hrs by Western blot analysis; format: cell-based
[22] = molecular target: T2, von Hippel-Lindau disease tumor suppressor/Dual specificity mitogen-activated protein kinase kinase 2/Dual specificity mitogen-activated protein kinase kinase 1 (Homo sapiens); experiment: Protac activity against VHL/MEK1/2 in human SK-MEL-28 cells harboring with BRAF V600E variant assessed as phosphorylation of ERK at T202/Y204 residues at 0.3 uM pretreated with MEK1/2 inhibitor, PD0325901 for 2 hrs followed by incubation with compound for 10 hrs by Western blot analysis; format: cell-based
[23] = molecular target: T2, von Hippel-Lindau disease tumor suppressor/Dual specificity mitogen-activated protein kinase kinase 2/Dual specificity mitogen-activated protein kinase kinase 1 (Homo sapiens); experiment: Protac activity against VHL/MEK1/2 in human HT-29 cells harboring with BRAF V600E variant assessed as phosphorylation of ERK at T202/Y204 residues at 0.3 uM pretreated with proteasome inhibitor, MG-132 for 2 hrs followed by incubation with compound for 10 hrs by Western blot analysis; format: cell-based
[24] = test system: HT-29; experiment: Effect on total ERK protein expression in human HT-29 cells at 0.001 to 5 uM after 24 hrs by Western blot analysis; format: functional, cell-based
[25] = molecular target: T3, von Hippel-Lindau disease tumor suppressor/Dual specificity mitogen-activated protein kinase kinase 1 (Homo sapiens); experiment: Protac activity against VHL/MEK1 in human HT-29 cells harboring with BRAF V600E variant assessed as degradation of MEK1 by measuring reduction in MEK1 protein level at 0.1 to 0.3 uM after 2 hrs by Western blot analysis; format: cell-based
[26] = Ratio of Plasma concentration in Swiss albino mouse at 50 mg/kg, ip measured after 8 hrs to GI50 for antiproliferative activity against human HT-29 cells; format: organism-based; conditions: in vivo

## Cc1ncsc1-c1ccc([C@H](C)NC(=O)[C@@H]2C[C@@H](O)CN2C(=O)[C@@H](NC(=O)CCCCCCCCCCNCCCONC(=O)c2ccc(F)c(F)c2Nc2ccc(I)cc2F)C(C)(C)C)cc1
[1]
  Activity: Active
[2]
  Activity: inactive
[3]
  Activity: Active
[4]
  Activity: Non-Toxic
[5]
  Activity: Active
[6]
  Activity: inactive
[7]
  Activity: Active
[8]
  Activity: > 80%
[9]
  Activity: Dose-dependent effect
[10]
  Activity: Active
[11]
  Activity: Active
[12]
  Activity: Dose-dependent effect
[13]
  Activity: Active
[14]
  Activity: inactive
[15]
  growth inhibition (GI): Dose-dependent effect
[15]; SK-MEL-28, 72 h
  GI50: 0.083 µM
[16]
  Activity: Active
[17]
  Activity: Dose-dependent effect
[18]
  Activity: Active
[19]
  Activity: Dose-dependent effect
[20]
  inhibition: Active
[21]
  Activity: Active
[22]
  Activity: inactive
[23]
  Activity: inactive
[24]
  Activity: inactive
[25]
  Activity: Active
[26]
  Ratio: 3 to 20
